# Experimental data reported in patent publication US20150225404A1, “PYRIDINE DERIVATIVE AND MEDICINE” (NIPPON SHINYAKU CO., LTD., priority 2012, published 2015).
# Structures can show the parent of a compound that is named as a salt.
# Key:
# male Slc:ICR mice [1] = assay: Action against formalin-induced pain behavior in mice; assay type: in vivo; details: Mus musculus, iv, 0.1 h, 6 minutes observation, read-out: Percent inhibition of pain-related behavior time (%); for inhibition in vivo at 1 mg/kg: test substance 1 mg/kg intravenously; for inhibition in vivo at 3 mg/kg: test substance 3 mg/kg intravenously
# Experimental: 4 to 6-week-old male Slc:ICR mice (available from Japan SLC, Inc.) were used. A medium or a test substance (1 mg/kg or 3 mg/kg) was intravenously administered to each mouse, and immediately thereafter, 20 μL of 1% or 5% formalin was subcutaneously administered to a right hind paw of the mouse. Thereafter, the mice were quickly put into an observation cage and measured for the total time (sec) of pain-related behavior (licking or biting behavior against the right hindlimb) during 6 minutes, and an average value of the pain-related behavior time of each group was calculated.
# The intensity of an analgesic action of the test substance was evaluated in terms of percent inhibition (%) of pain-related behavior time which is calculated as {(A−B)/A×100}, wherein A is an average value of the pain-related behavior time of a medium-administered group, and B is an average value of the pain-related behavior time of a test substance-administered group.
# human mGluR5 = molecular target: T1, human mGluR5 (Homo sapiens, UniProt P41594); assay: Experiment for receptor function of mGluR5 (Ca2+-dependent fluorescence, FLIPR, CHO-K1 cells stably expressing human mGluR5); assay type: cell-based; details: L-glutamic acid 10 μM, Fluo-4 fluorescence
# T1 construct: expressed in transfected cells
# Outline: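 Fluo-4-loaded CHO-K1 cells pre-incubated 2 min with test substance, then stimulated with L-glutamic acid (final 10 μM) in HBSS, pH 7.4. FLIPR Ca2+ fluorescence normalized to glutamate alone (100%) and glutamate with 10 μM MPEP (0%); IC50 estimated by logistic fit.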
# male Slc:ICR mice [2] = assay: Action against pain-related behavior and micturition cycle in mice with cyclophosphamide (CP)-induced acute cystitis; assay type: in vivo; details: Mus musculus, iv, 0.25 h, CP 300 mg/kg i.p., 15 minutes observation; for inhibition in vivo at 3 mg/kg: test substance 3 mg/kg intravenously 3 hours after CP; for inhibition in vivo at 1 mg/kg: test substance 1 mg/kg intravenously 3 hours after CP
# Experimental: An action of a test substance against visceral pain and frequent urination associated with cystitis, which was induced by intraperitoneal administration (20 mL/kg) of CP (300 mg/kg) to 4 to 5-week-old male Slc:ICR mice (available from Japan SLC, Inc.), was investigated. This experiment was performed according to a method described in European Journal of Pharmacology, 676 (2012), pp. 75-80.
# Three hours after the administration of CP, a test substance (1 mg/kg or 3 mg/kg) was intravenously administered, and observation by visual inspection and video recording were performed for 15 minutes immediately thereafter. In the observation by visual inspection, four pain-related behaviors (eye opening, rounded back, leg dragging, and behavior during urination) were scored, each rated on a scale of 0-10, according to the following criteria.
# Eye opening (normal: 0 point, sometimes closed or half-open eyes: 5 points, completely closed: 10 points)
# Rounded back (normal: 0 point, sometimes crouched: 5 points, crouched at almost all times: 10 points)
# Leg dragging (normal: 0 point, leg dragging: 10 points)
# Behavior during urination (normal: 0 point, shaking hip in micturition: 10 points)
# In addition, the video was played back, and the frequency of licking behavior around the abdomen as a pain-related behavior was scored, rated on a scale of 0-10, according to the following criteria.
# Licking behavior around the abdomen (0 to 3 times: 0 point, 4 times to 10 times: 5 points, 11 times or more: 10 points)
# Furthermore, the video was played back, and the frequency of urination (urination marks) on a filter paper was counted and taken as an index for micturition cycle.
# An average value of the pain-related behavior score of each group (total score of the five items: 50 points at maximum) and an average value of the frequency of urination (urination marks) on the filter paper were determined.
# The strength of an analgesic action of the test substance against the CP-induced visceral pain was evaluated in terms of percent inhibition (%) of pain-related behavior score which is calculated as {(A−B)/A×100}, wherein A is an average value of the pain-related behavior score of a medium-administered group, and B is an average value of the pain-related behavior score of a test substance-administered group.
# In addition, the strength of a frequent urination inhibitory action of the test substance against the CP-induced frequent urination was evaluated in terms of percent inhibition (%) of the frequency of urination which is calculated as {(C−D)/C×100}, wherein C is an average value of the frequency of urination of a medium-administered group, and D is an average value of the frequency of urination of a test substance-administered group.
# [3] = read-out: Percent inhibition of pain-related behavior score (%)
# [4] = read-out: Percent inhibition of the frequency of urination (%)
# T1 sequence (P41594 21-1212): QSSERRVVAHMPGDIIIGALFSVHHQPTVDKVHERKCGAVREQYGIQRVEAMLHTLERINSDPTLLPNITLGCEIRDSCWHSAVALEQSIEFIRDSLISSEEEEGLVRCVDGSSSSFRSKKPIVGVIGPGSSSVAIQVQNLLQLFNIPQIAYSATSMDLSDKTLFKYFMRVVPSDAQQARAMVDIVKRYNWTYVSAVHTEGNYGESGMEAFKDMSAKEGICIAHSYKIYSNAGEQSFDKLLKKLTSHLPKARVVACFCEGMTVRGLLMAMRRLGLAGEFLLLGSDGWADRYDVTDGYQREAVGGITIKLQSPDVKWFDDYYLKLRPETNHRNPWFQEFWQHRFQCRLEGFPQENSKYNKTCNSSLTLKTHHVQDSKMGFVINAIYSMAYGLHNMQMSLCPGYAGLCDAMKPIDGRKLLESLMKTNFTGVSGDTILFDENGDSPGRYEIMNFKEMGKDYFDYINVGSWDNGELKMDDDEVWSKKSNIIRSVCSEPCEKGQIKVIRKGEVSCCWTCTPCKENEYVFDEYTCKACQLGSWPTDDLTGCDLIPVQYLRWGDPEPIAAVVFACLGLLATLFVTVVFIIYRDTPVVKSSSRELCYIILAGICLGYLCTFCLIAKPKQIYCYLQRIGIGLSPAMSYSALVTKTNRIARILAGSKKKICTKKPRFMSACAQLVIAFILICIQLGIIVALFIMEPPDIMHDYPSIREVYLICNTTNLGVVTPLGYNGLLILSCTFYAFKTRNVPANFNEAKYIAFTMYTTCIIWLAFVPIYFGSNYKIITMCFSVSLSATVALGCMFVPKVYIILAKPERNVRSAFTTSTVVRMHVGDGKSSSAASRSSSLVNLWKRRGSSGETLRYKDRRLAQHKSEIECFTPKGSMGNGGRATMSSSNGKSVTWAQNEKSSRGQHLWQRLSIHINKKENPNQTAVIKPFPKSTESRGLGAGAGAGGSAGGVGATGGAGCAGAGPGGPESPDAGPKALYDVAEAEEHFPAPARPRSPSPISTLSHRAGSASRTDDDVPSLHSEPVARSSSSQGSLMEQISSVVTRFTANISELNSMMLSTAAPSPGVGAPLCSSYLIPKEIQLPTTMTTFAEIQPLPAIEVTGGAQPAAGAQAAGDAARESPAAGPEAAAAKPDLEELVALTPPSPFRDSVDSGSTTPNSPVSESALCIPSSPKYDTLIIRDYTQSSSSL
SMILES,IC50 (human mGluR5),inhibition in vivo at 3 mg/kg (male Slc:ICR mice [2]; [3]),inhibition in vivo at 3 mg/kg (male Slc:ICR mice [2]; [4]),other results
"Fc1ncccc1-c1cc(OCc2ccccn2)nc2c1CCC2 [Example 2, 4-(2-Fluoropyridin-3-yl)-2-(pyridin-2-ylmethoxy)-6,7-dihydro-5H-cyclopenta[b]pyridine hydrochloride]",5.26 nM,–,–,inhibition in vivo at 1 mg/kg (male Slc:ICR mice [1]; 1% formalin): 47%
"N#Cc1ncccc1-c1cc(OCc2ccccn2)nc2c1CCC2 [Example 3, 3-[2-(Pyridin-2-ylmethoxy)-6,7-dihydro-5H-cyclopenta[b]pyridin-4-yl]pyridine-2-carbonitrile]",12 nM,–,–,inhibition in vivo at 1 mg/kg (male Slc:ICR mice [1]; 1% formalin): 25.1%
"c1ccc(COc2cc(-c3cncnc3)c3c(n2)CCC3)nc1 [Example 12, 2-(Pyridin-2-ylmethoxy)-4-(pyrimidin-5-yl)-6,7-dihydro-5H-cyclopenta[b]pyridine hydrochloride]",–,–,–,inhibition in vivo at 1 mg/kg (male Slc:ICR mice [1]; 1% formalin): 66.8%
"Fc1cccc(COc2cc(-c3cncnc3)c3c(n2)CCC3)c1 [Example 15, 2-[(3-Fluorobenzyl)oxy]-4-(pyrimidin-5-yl)-6,7-dihydro-5H-cyclopenta[b]pyridine]",–,–,–,inhibition in vivo at 1 mg/kg (male Slc:ICR mice [1]; 5% formalin): 64%
"N#Cc1cccc(COc2cc(-c3cncnc3)c3c(n2)CCC3)c1 [Example 23, 3-({[4-(Pyrimidin-5-yl)-6,7-dihydro-5H-cyclopenta[b]pyridin-2-yl]oxy}methyl)benzonitrile]",39 nM,–,–,inhibition in vivo at 1 mg/kg (male Slc:ICR mice [1]; 5% formalin): 47.9%
"Cc1ncc(-c2cc(OCc3ccccn3)nc3c2CCC3)cn1 [Example 36, 4-(2-Methylpyrimidin-5-yl)-2-(pyridin-2-ylmethoxy)-6,7-dihydro-5H-cyclopenta[b]pyridine hydrochloride]",71 nM,40.4%,31.3%,–
"Cc1ncc(-c2cc(OCc3nc(F)ccc3F)nc3c2CCC3)cn1 [Example 43, 2-[(3,6-Difluoropyridin-2-yl)methoxy]-4-(2-methylpyrimidin-5-yl)-6,7-dihydro-5H-cyclopenta[b]pyridine]",–,31%,41.9%,–
"Cc1cccc(COc2cc(-c3cnc(C)nc3)c3c(n2)CCC3)n1 [Example 45, 2-[(6-Methylpyridin-2-yl)methoxy]-4-(2-methylpyrimidin-5-yl)-6,7-dihydro-5H-cyclopenta[b]pyridine hydrochloride]",–,34.1%,33.8%,–
"Cc1ncc(-c2cc(OCc3cccc(C#N)n3)nc3c2CCC3)cn1 [Example 46, 6-({[4-(2-Methylpyrimidin-5-yl)-6,7-dihydro-5H-cyclopenta[b]pyridin-2-yl]oxy}methyl)pyridine-2-carbonitrile]",207 nM,–,–,inhibition in vivo at 1 mg/kg (male Slc:ICR mice [2]; [3]): 22%; inhibition in vivo at 1 mg/kg (male Slc:ICR mice [2]; [4]): 31.5%
"c1ccc(COc2cc(-c3cccnc3)c3c(n2)CCCC3)nc1 [Example 82, 4-(Pyridin-3-yl)-2-(pyridin-2-ylmethoxy)-5,6,7,8-tetrahydroquinoline]",153 nM,–,–,inhibition in vivo at 3 mg/kg (male Slc:ICR mice [1]; 1% formalin): 59.8%
"c1cnc(COc2cc(-c3cccnc3)c3c(n2)CCCC3)nc1 [Example 90, 4-(Pyridin-3-yl)-2-(pyrimidin-2-ylmethoxy)-5,6,7,8-tetrahydroquinoline]",152 nM,–,–,inhibition in vivo at 1 mg/kg (male Slc:ICR mice [1]; 5% formalin): 54.3%
"c1ccc(COc2cc(-c3cncnc3)c3c(n2)CCCC3)nc1 [Example 143, 2-(Pyridin-2-ylmethoxy)-4-(pyrimidin-5-yl)-5,6,7,8-tetrahydroquinoline hydrochloride]",38 nM,52.2%,47.7%,–
"Fc1cccnc1COc1cc(-c2cncnc2)c2c(n1)CCCC2 [Example 147, 2-[(3-Fluoropyridin-2-yl)methoxy]-4-(pyrimidin-5-yl)-5,6,7,8-tetrahydroquinoline]",19.7 nM,38.8%,21.1%,–
"Fc1ccc(F)c(COc2cc(-c3cncnc3)c3c(n2)CCCC3)n1 [Example 148, 2-[(3,6-Difluoropyridin-2-yl)methoxy]-4-(pyrimidin-5-yl)-5,6,7,8-tetrahydroquinoline]",22 nM,45.7%,31.5%,–
"c1cnc(COc2cc(-c3cncnc3)c3c(n2)CCCC3)cn1 [Example 163, 2-(Pyrazin-2-ylmethoxy)-4-(pyrimidin-5-yl)-5,6,7,8-tetrahydroquinoline]",–,–,–,inhibition in vivo at 3 mg/kg (male Slc:ICR mice [1]; 5% formalin): 37.2%
"Cc1cccc(COc2cc(-c3cnc(C)nc3)c3c(n2)CCCC3)n1 [Example 182, 2-[(6-Methylpyridin-2-yl)methoxy]-4-(2-methylpyrimidin-5-yl)-5,6,7,8-tetrahydroquinoline hydrochloride]",123 nM,26%,43.2%,–
"Cc1ncc(-c2cc(OCc3cccc(C#N)n3)nc3c2CCCC3)cn1 [Example 183, 6-({[4-(2-Methylpyrimidin-5-yl)-5,6,7,8-tetrahydroquinolin-2-yl]oxy}methyl)pyridine-2-carbonitrile]",148 nM,–,–,inhibition in vivo at 1 mg/kg (male Slc:ICR mice [2]; [3]): 37%; inhibition in vivo at 1 mg/kg (male Slc:ICR mice [2]; [4]): 22.7%
"Nc1ncc(-c2cc(OCc3ncccc3F)nc3c2CCCC3)cn1 [Example 191, 5-{2-[(3-Fluoropyridin-2-yl)methoxy]-5,6,7,8-tetrahydroquinolin-4-yl}pyrimidin-2-amine hydrochloride]",36 nM,20.5%,36.5%,–
"OCc1cncc(-c2cc(OCc3ncccc3F)nc3c2CCCC3)n1 [Example 217, (6-{2-[(3-Fluoropyridin-2-yl)methoxy]-5,6,7,8-tetrahydroquinolin-4-yl}pyrazin-2-yl)methanol]",–,38.3%,40.4%,–
"Fc1ccc(F)c(COc2cc(-c3cncnc3)c3c(n2)CCC3)n1 [Example 255, 2-[(3,6-Difluoropyridin-2-yl)methoxy]-4-(pyrimidin-5-yl)-6,7-dihydro-5H-cyclopenta[b]pyridine]",–,31%,26.4%,–
"OCc1cncc(-c2cc(OCc3ccccn3)nc3c2CCC3)n1 [Example 268, {6-[2-(Pyridin-2-ylmethoxy)-6,7-dihydro-5H-cyclopenta[b]pyridin-4-yl]pyrazin-2-yl}methanol hydrochloride]",–,–,–,inhibition in vivo at 1 mg/kg (male Slc:ICR mice [1]; 5% formalin): 53.9%
"Nc1ncc(-c2cc(OCc3cccc(F)n3)nc3c2CCCC3)cn1 [Example 283, 5-{2-[(6-Fluoropyridin-2-yl)methoxy]-5,6,7,8-tetrahydroquinolin-4-yl}pyrimidin-2-amine hydrochloride]",–,–,–,inhibition in vivo at 1 mg/kg (male Slc:ICR mice [1]; 5% formalin): 38.8%
"N#Cc1ccc(COc2cc(-c3cncc(CO)n3)c3c(n2)CCCC3)nc1 [Example 288, 6-[({4-[6-(Hydroxymethyl)pyrazin-2-yl]-5,6,7,8-tetrahydroquinolin-2-yl}oxy)methyl]pyridine-3-carbonitrile]",119 nM,–,–,–
